ChEMBL document CHEMBL3774317, “Design and synthesis of novel tamoxifen analogues that avoid CYP2D6 metabolism” (Eur J Med Chem, 2016)

What was measured:
[1] = Cytotoxicity against human TK10 cells assessed as cell growth at 50 uM after 48 hrs by SRB assay; type: functional; settings: TK-10, 48 h, read-out: Activity
[2] = Cytotoxicity against human HOP92 cells assessed as cell growth at 0.5 uM after 48 hrs by SRB assay; type: functional; settings: HOP-92, 48 h, read-out: Activity
[3] = Cytotoxicity against human RPMI8226 cells assessed as cell growth at 50 uM after 48 hrs by SRB assay; type: functional; settings: RPMI-8226, 48 h, read-out: Activity
[4] = Cytotoxicity against human OVCAR4 cells assessed as cell growth at 5 nM after 48 hrs by SRB assay; type: functional; settings: OVCAR-4, 48 h, read-out: Activity
[5] = system: NCI-H322M; test: Cytotoxicity against human NCI-H322M cells assessed as cell growth at 50 uM after 48 hrs by SRB assay; type: functional; settings: read-out: Activity
[6] = system: SN12C; test: Cytotoxicity against human SN12C cells assessed as cell growth at 5 nM after 48 hrs by SRB assay; type: functional; settings: read-out: Activity
[7] = Cytotoxicity against human HCC2998 cells assessed as cell growth at 5 nM after 48 hrs by SRB assay; type: functional; settings: HCC 2998, 48 h, read-out: Activity
[8] = system: NCI-H460; test: Cytotoxicity against human NCI-H460 cells assessed as cell growth at 5 uM after 48 hrs by SRB assay; type: functional; settings: NCI-H460, 48 h, read-out: Activity
[9] = system: HT-29; test: Cytotoxicity against human HT-29 cells assessed as cell growth at 50 uM after 48 hrs by SRB assay; type: functional; settings: HT-29, 48 h, read-out: Activity
[10] = Cytotoxicity against human OVCAR4 cells assessed as cell growth at 50 uM after 48 hrs by SRB assay; type: functional; settings: OVCAR-4, 48 h, read-out: Activity
[11] = Cytotoxicity against human IGROV1 cells assessed as cell growth at 5 uM after 48 hrs by SRB assay; type: functional; settings: IGROV-1, 48 h, read-out: Activity
[12] = Cytotoxicity against human HCT116 cells assessed as cell growth at 50 uM after 48 hrs by SRB assay; type: functional; settings: HCT-116, 48 h, read-out: Activity
[13] = Cytotoxicity against human SF539 cells assessed as cell growth at 5 nM after 48 hrs by SRB assay; type: functional; settings: SF-539, 48 h, read-out: Activity
[14] = Cytotoxicity against human LOXIMVI cells assessed as cell growth at 5 nM after 48 hrs by SRB assay; type: functional; settings: LOX IMVI, read-out: Activity
[15] = Cytotoxicity against human OVCAR8 cells assessed as cell growth at 5 uM after 48 hrs by SRB assay; type: functional; settings: OVCAR-8, 48 h, read-out: Activity
[16] = Cytotoxicity against human SF268 cells assessed as cell growth at 5 nM after 48 hrs by SRB assay; type: functional; settings: SF-268, 48 h, read-out: Activity
[17] = system: MCF7; test: Cytotoxicity against human MCF7 cells assessed as cell growth at 50 uM after 48 hrs by SRB assay; type: functional; settings: MCF7, 48 h, read-out: Activity
[18] = system: 786-0; test: Cytotoxicity against human 786-0 cells assessed as cell growth at 0.5 uM after 48 hrs by SRB assay; type: functional; settings: 786-0, 48 h, read-out: Activity
[19] = system: MDA-MB-468; test: Cytotoxicity against human MDA-MB-468 cells assessed as cell growth at 50 nM after 48 hrs by SRB assay; type: functional; settings: MDA-MB-468, 48 h, read-out: Activity
[20] = Cytotoxicity against human SNB19 cells assessed as cell growth at 50 nM after 48 hrs by SRB assay; type: functional; settings: SNB-19, 48 h, read-out: Activity
[21] = Cytotoxicity against human UACC62 cells assessed as cell growth at 0.5 uM after 48 hrs by SRB assay; type: functional; settings: UACC-62, 48 h, read-out: Activity
[22] = Cytotoxicity against human HOP92 cells assessed as cell growth at 50 uM after 48 hrs by SRB assay; type: functional; settings: HOP-92, 48 h, read-out: Activity
[23] = Cytotoxicity against human UACC257 cells assessed as cell growth at 50 nM after 48 hrs by SRB assay; type: functional; settings: UACC-257, 48 h, read-out: Activity
[24] = system: K562; test: Cytotoxicity against human K562 cells assessed as cell growth at 50 nM after 48 hrs by SRB assay; type: functional; settings: K562, 48 h, read-out: Activity
[25] = Cytotoxicity against human OVCAR8 cells assessed as cell growth at 5 nM after 48 hrs by SRB assay; type: functional; settings: OVCAR-8, 48 h, read-out: Activity
[26] = system: NCI-H322M; test: Cytotoxicity against human NCI-H322M cells assessed as cell growth at 50 nM after 48 hrs by SRB assay; type: functional; settings: read-out: Activity
[27] = system: NCI-H322M; test: Cytotoxicity against human NCI-H322M cells assessed as cell growth at 0.5 uM after 48 hrs by SRB assay; type: functional; settings: read-out: Activity
[28] = molecular target: Estrogen receptor beta (Homo sapiens, UniProt Q92731)
Description: Displacement of [3H]-E2 from human ER-beta incubated for 16 to 20 hrs by liquid scintillation counting analysis

[29] = system: MCF7; test: Cytotoxicity against human MCF7 cells assessed as cell growth at 10^-8 M after 48 hrs by SRB assay; type: functional; settings: MCF7, 48 h, read-out: Activity
[30] = system: EKVX; test: Cytotoxicity against human EKVX cells assessed as cell growth at 10^-8 M after 48 hrs by SRB assay; type: functional; settings: read-out: Activity
[31] = Cytotoxicity against human LOXIMVI cells assessed as cell growth at 10^-6 M after 48 hrs by SRB assay; type: functional; settings: LOX IMVI, read-out: Activity
[32] = system: Malme-3M; test: Cytotoxicity against human MALME-3M cells assessed as cell growth at 10^-5 M after 48 hrs by SRB assay; type: functional; settings: read-out: Activity
[33] = system: MCF7; test: Cytotoxicity against human MCF7 cells assessed as cell growth at 10^-5 M after 48 hrs by SRB assay; type: functional; settings: MCF7, 48 h, read-out: Activity
[34] = Cytotoxicity against human SF539 cells assessed as cell growth at 10^-8 M after 48 hrs by SRB assay; type: functional; settings: SF-539, 48 h, read-out: Activity
[35] = system: A498; test: Cytotoxicity against human A498 cells assessed as cell growth at 10^-6 M after 48 hrs by SRB assay; type: functional; settings: A498, 48 h, read-out: Activity
[36] = system: ACHN; test: Cytotoxicity against human ACHN cells assessed as cell growth at 10^-5 M after 48 hrs by SRB assay; type: functional; settings: read-out: Activity
[37] = system: SK-MEL-5; test: Cytotoxicity against human SK-MEL-5 cells assessed as cell growth at 10^-8 M after 48 hrs by SRB assay; type: functional; settings: SK-MEL-5, 48 h, read-out: Activity
[38] = Cytotoxicity against human HCT15 cells assessed as cell growth at 10^-8 M after 48 hrs by SRB assay; type: functional; settings: HCT-15, 48 h, read-out: Activity
[39] = Cytotoxicity against human SF295 cells assessed as cell growth at 10^-4 M after 48 hrs by SRB assay; type: functional; settings: SF-295, 48 h, read-out: Activity
[40] = Cytotoxicity against human SKOV3 cells assessed as cell growth at 10^-8 M after 48 hrs by SRB assay; type: functional; settings: SK-OV-3, 48 h, read-out: Activity
[41] = system: CCRF-CEM; test: Cytotoxicity against human CCRF-CEM cells assessed as cell growth at 10^-8 M after 48 hrs by SRB assay; type: functional; settings: read-out: Activity
[42] = system: SN12C; test: Cytotoxicity against human SN12C cells assessed as cell growth at 10^-6 M after 48 hrs by SRB assay; type: functional; settings: read-out: Activity

Sequence of Estrogen receptor beta (Q92731 whole entry): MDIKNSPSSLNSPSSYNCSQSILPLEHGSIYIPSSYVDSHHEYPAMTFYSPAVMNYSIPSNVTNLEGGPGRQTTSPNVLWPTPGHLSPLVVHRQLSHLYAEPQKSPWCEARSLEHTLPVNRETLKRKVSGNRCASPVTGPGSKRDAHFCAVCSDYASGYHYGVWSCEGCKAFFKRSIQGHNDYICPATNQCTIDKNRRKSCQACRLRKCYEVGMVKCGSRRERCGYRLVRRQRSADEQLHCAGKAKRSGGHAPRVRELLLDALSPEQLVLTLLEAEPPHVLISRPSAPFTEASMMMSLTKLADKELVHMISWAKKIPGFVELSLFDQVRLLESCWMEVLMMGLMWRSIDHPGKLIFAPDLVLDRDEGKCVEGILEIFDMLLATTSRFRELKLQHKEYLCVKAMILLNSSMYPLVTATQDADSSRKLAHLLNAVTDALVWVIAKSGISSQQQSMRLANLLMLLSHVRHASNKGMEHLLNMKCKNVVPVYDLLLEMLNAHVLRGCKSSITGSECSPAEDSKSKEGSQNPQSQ

For `CCCCCCCCCC(=O)Oc1ccc(/C(=C(/C)c2ccccc2)c2ccc(OCCN3CCCC3)cc2)cc1`, the growth at 50 µM [1] was -87%, the growth at 0.5 µM [2] was 64% and the growth at 50 µM [3] was -52%. The growth at 0.005 µM [4] was 100%, the growth at 50 µM [5] was -86% and the growth at 0.005 µM [6] was 102%. For the same molecule, the growth at 0.005 µM [7] was 98%, the growth at 5 µM [8] was 92% and the growth at 50 µM [9] was -89%. For the same molecule, the growth at 50 µM [10] was -87%, the growth at 5 µM [11] was 84% and the growth at 50 µM [12] was -87%. For the same molecule, the growth at 0.005 µM [13] was 105%, the growth at 0.005 µM [14] was 97% and the growth at 5 µM [15] was 95%. For the same molecule, the growth at 0.005 µM [16] was 100%, the growth at 50 µM [17] was -79% and the growth at 0.5 µM [18] was 79%. The growth at 0.05 µM [19] was 100%, the growth at 0.05 µM [20] was 98% and the growth at 0.5 µM [21] was 64%. It also gave a growth at 50 µM [22] of -75%, a growth at 0.05 µM [23] of 102% and a growth at 0.05 µM [24] of 95%. For the same molecule, the growth at 0.005 µM [25] was 102%, the growth at 0.05 µM [26] was 93% and the growth at 0.5 µM [27] was 73%.

`C/C(=C(/c1ccc(O)cc1)c1ccc(OCCN2CCCC2)cc1)c1ccccc1` showed an IC50 [28] of 40 nM, a growth at 0.01 µM [29] of 44% and a growth at 0.01 µM [30] of 91%. For the same molecule, the growth at 1 µM [31] was 92%, the growth at 10 µM [32] was -77% and the growth at 10 µM [33] was -47%. For the same molecule, the growth at 0.01 µM [34] was 89%, the growth at 1 µM [35] was 66% and the growth at 10 µM [36] was 25%. For the same molecule, the growth at 0.01 µM [37] was 101%, the growth at 0.01 µM [38] was 92% and the growth at 100 µM [39] was -95%. The growth at 0.01 µM [40] was 88%, the growth at 0.01 µM [41] was 110% and the growth at 1 µM [42] was 101%.
